Test results published in ChEMBL document CHEMBL3507680, “University of Dundee, Gates Library screen for HepG2 cell viability”.

Assay: Human HepG2 cell viability assay in 384 well format
Format: toxicity, cell-based
Set-up: dose 125 nL, time 70.5 hour; concentration not given beside the values
Conditions: HepG2 cells, read-out: Inhibition

| SMILES | cytotoxicity at 70.5 h [%] |
| --- | --- |
| COc1ccc(CNCc2ccnc(N3CCOCC3)c2)cc1OC | -10.1 |
| CC(C)NC(=O)N1CCCn2cnc(CO)c2C1 | 6.26 |
| O=C([C@H]1C[C@@H]2CCN(C3CCOCC3)C[C@H]2O1)N1CCCC1 | -4.47 |
| CCc1cc(N[C@H]2CCC[C@H]2CO)n2nc(C)c(C)c2n1 | -2.92 |
| CC(C)(C)c1nc(CN2CCCC(Cn3cncn3)C2)no1 (configuration not stated) | -13.7 |
| COC(C)(C)CC(C)NC(=O)NC1CCN(Cc2ccccn2)CC1 (configuration not stated) | -0.855 |
| O=C(c1ccc(=O)[nH]n1)N1CCNCC1c1ccccc1 (configuration not stated) | -2.98 |
| COc1ccc(CNC(=O)Cc2csc(C(C)=O)c2)cc1 | -8.65 |
| O=C(Nc1cnc(Oc2ccccc2)nc1)C1CC1 | -2.39 |
| N#Cc1ccccc1C(=O)N1C[C@@H](CN2CCCCC2)[C@@H](CO)C1 | -5.21 |
| c1coc(CN2CCn3c(CN4CCOCC4)nnc3C2)c1 | -1.27 |
| COCc1ccccc1CNC(=O)CN1CCCC1c1noc(C)n1 (configuration not stated) | -2.27 |
| O=S1(=O)C[C@@H]2[C@H](C1)N(Cc1ncc[nH]1)CCN2C/C=C/c1ccccc1 | -7.45 |
| CC(C)CNC(=O)CCN1C(=O)CCc2cc(F)ccc21 | -4.13 |
| O=C(O)c1cc(-c2ccoc2)cc(S(=O)(=O)NC2CC2)c1 | -6.76 |
| CCS(=O)(=O)NC1CCCN(c2cc(C)ccc2F)C1=O (configuration not stated) | -1.61 |
| CN(CCC#N)C(=O)CN(C1CC1)C1CCc2ccccc21 (configuration not stated) | 0.586 |
| CNc1ncc(-c2csc(NC(=O)C[C@H]3COCCN3)n2)cn1 | -11.4 |
| Cn1cnc2c1CCN(Cc1csc(C3CCCCC3)n1)C2 | -14.4 |
| Cc1ccc([C@]2(O)CC[C@H]3CN(Cc4cccc(Cl)c4Cl)C[C@H]32)nc1 | 22.9 |
| Cc1noc(C)c1CN1CC2(CCN(C(=O)c3cccn3C)C2)CC1=O (configuration not stated) | -8.3 |

| SMILES | cytotoxicity at 70.5 h [%] |
| --- | --- |
| Cn1ccnc1SCCNC1CCN(c2ncccn2)CC1 | -1.29 |
| Cc1cccc(-c2nccn2-c2cccc(CC(=O)O)c2)n1 | -9.85 |
| COc1ccc2nnc(CCC(=O)Nc3nc(C)c(C)s3)n2n1 | -9.75 |
| CS(=O)(=O)N1CC2(CCN(c3nccs3)CC2)c2ccccc21 | 5.59 |
| Cc1ccc(C(=O)N2CCc3c(CN4CCCC4)nn(C)c3C2)cc1C | -2.24 |
| COc1ccccc1OCc1cc(C(=O)N2C[C@H](O)[C@@H](N(C)C)C2)n[nH]1 | -4.57 |
| O=C(NCCCN1CCOCC1)Nc1cnc2cc(Cl)ccc2c1O | 9.66 |
| Cc1ccc(OCc2ccc(C(=O)O)s2)cc1C | -6.36 |
| Cc1noc(CN2CCN(CCO)CC2)n1 | -3.7 |
| c1cnc2c(c1)CN(C1CCOC1)CCN2CC1CC1 (configuration not stated) | -8.62 |
| CN(C)CCOc1ccccc1N1CCN(C(=O)C(C)(C)C#N)CC1 | -0.199 |
| CN1CCC(n2nc(Cc3cccc(Cl)c3)nc2Cn2cnnn2)CC1 | 27.5 |
| CN(Cc1cnn(C)c1)C(=O)C(c1ccccc1)N1CCSCC1 (configuration not stated) | -9.84 |
| Cc1cnn(CC2CCCN2C(=O)c2csc(-c3nnc[nH]3)n2)c1 (configuration not stated) | -5 |
| Cc1occc1C(=O)N1CCCN(Cc2nccn2C(C)C)CC1 | 20.3 |
| Cc1nc(C)n(CC2CCCN(Cc3ccccc3C#N)C2)n1 (configuration not stated) | 22.8 |
| CCc1nc(C)cn1C(=O)Nc1ccc(F)cc1 | 5.48 |
| COc1ccc(CNCC2CCN(CC(C)O)CC2)c2ccccc12 (configuration not stated) | 29.8 |
| CN(c1ccc(CNc2c(Cl)cccc2C#N)cc1)S(C)(=O)=O | -1.4 |
| Cc1nnc2n1CCN(CCCS(=O)(=O)c1ccccc1)C2 | 0.781 |
| Cn1cc(-c2ccnc(NCC3CCCCO3)n2)cn1 (configuration not stated) | 9.61 |

| SMILES | cytotoxicity at 70.5 h [%] |
| --- | --- |
| CN(C)c1nc(N2CCCC2)nc2c1CCN(C(=O)c1ccoc1)CC2 | 0.617 |
| O=C(Nc1cc(C(F)(F)F)c[nH]c1=O)C1CCNCC1 | -12.8 |
| Cc1cc(CN(C)C(=O)NCC2CCS(=O)(=O)C2)no1 (configuration not stated) | -9.21 |
| Cc1cc(C(=O)N2CCCC(C)C2)ccc1NCc1nc(C(C)C)no1 (configuration not stated) | -9.64 |
| O=C1COC[C@H]([C@H](O)c2ccc(NC(=O)c3ccco3)cc2)N1 | -0.619 |
| O=C(c1ccccn1)N1CCn2cnc(COCC3CC3)c2C1 | -1.29 |
| CCn1ccnc1CN1CCCN(C(=O)C2(C#N)CCCCC2)CC1 | -3.94 |
| CC(c1ccc(F)cc1F)N1CCN(CCC(=O)NC(N)=O)CC1 (configuration not stated) | -6.26 |
| COCCn1cc(C(=O)N2CCCC(n3cncn3)C2)ccc1=O (configuration not stated) | 8.17 |
| CSc1nccn1-c1cccc(C(=O)NCc2nnc(C)n2C)c1 | 6.07 |
| CN1CCN(c2ccccc2CNC(=O)CSC(F)(F)F)CC1 | -6.98 |
| COc1cc(CN2CCCC23CCN(c2ccccn2)CC3)ccc1F | -0.0865 |
| COc1cc(F)ccc1-c1cc(N)ccn1 | -0.436 |
| CN(C)c1nccc(C2CN(C(=O)CO)C2)n1 | -4.15 |
| O=C(CC1CCc2ccccc21)NC1(C(=O)O)CCCC1 (configuration not stated) | 22.9 |
| CCN1N=C(C(=O)N2CCCC(c3nc(C)cs3)C2)CCC1=O (configuration not stated) | -2.03 |
| CC(C)(C)OC(=O)NCCc1csc(N2CCCC2)n1 | -3.27 |
| Cc1cc(C(=O)N(C)Cc2ccccc2OCC(C)C)cc(=O)[nH]1 | 15.6 |
| COc1ccnc(N2CCC3(CCCN(CC4CC4)C3=O)C2)n1 (configuration not stated) | -6.47 |
| COC(C)c1nc(CN2CCCNCC2)cs1 (configuration not stated) | -3.19 |
| COCCn1ccc2c(NC(=O)c3n[nH]c4c3CCC4)cccc21 | 1.93 |

| SMILES | cytotoxicity at 70.5 h [%] |
| --- | --- |
| O=C(NCCN1CCOCC1)c1n[nH]c(=O)c2ccccc12 | -10.8 |
| Cc1ccnc(CC(C)N(C)Cc2ccc3c(c2)CCO3)c1 (configuration not stated) | -5.48 |
| CN(Cc1cccc(OC(F)(F)F)c1)Cc1cnn(C)c1 | -12.4 |
| O=C(CC1CC1)N[C@@H]1CN(Cc2ccncc2)C[C@@H]2CCCO[C@@H]21 | -0.814 |
| O=C(O)[C@@H]1CN(Cc2c[nH]c(CC3CCCC3)n2)C[C@H]1c1ccccn1 | 17.2 |
| Cn1cnnc1-c1ccnc(NCc2ccc3c(c2)OCCO3)c1 | -3.05 |
| Cc1nn(C)cc1-c1ccnc(N2CCCN(CC(C)C)CC2)n1 | -6.83 |
| CC(NC(=O)CCOc1ccccc1Cl)c1nnc2n1CCC2 (configuration not stated) | -16.2 |
| Cn1nc(Cn2ccnc2)c2c1CN(C(=O)c1ccoc1)C2 | -9.72 |
| CS(=O)(=O)N1CCCC1Cn1cccn1 (configuration not stated) | 2.44 |
| CCc1nnc(C2Cc3ccccc3CN2Cc2nc(C)no2)o1 (configuration not stated) | -3.78 |
| Cc1oncc1C(=O)N1CC[C@H]2[C@H](C[C@@H](CN(C)C)N2CC2CC2)C1 | -0.907 |
| Cc1cncc(C2CCN(Cc3cccn3C)CC2)n1 | 11.8 |
| CCNC(=O)Nc1ccc2c(ccn2CC(=O)N(CC)CC)c1 | -0.739 |
| Cc1cc(-c2nnn(CCC(N)=O)n2)ccc1F | -9.65 |
| COc1cccc2c1OCC(C(=O)N(Cc1ccncc1)CC(C)C)C2 (configuration not stated) | 15.1 |
| CCC(O)CNc1nccc(-c2ccc(C)nc2C)n1 (configuration not stated) | -14.6 |
| CNc1cncc(C2CCCN2C(=O)Cn2c(=O)oc3ccccc32)n1 (configuration not stated) | -5.11 |
| Cc1nc2ccccc2nc1CN1CCCC1Cn1cccn1 (configuration not stated) | 20.6 |
